# Test results taken from patent publication US20240343761A1, “APELINERGIC MACROCYCLES AND USES THEREOF” (priority 2021, published 2024).
# Where two headings read alike, the source gives them in different places. Bridge positions count the residues as written; N and C are the ends. Square brackets hold non-standard residues; d marks the D form. Peptide text beside a SMILES is read from it. Phe(4-Br) = N[C@@H](Cc1ccc(Br)cc1)C(=O)O; pGlu = O=C1CC[C@@H](C(=O)O)N1; Nle = CCCC[C@H](N)C(=O)O
# Tests used:
# [1] = Rat plasma stability (half-life in vitro); type: in vitro ADME; details: male, Sprague-Dawley, rat, plasma
# Protocol: Plasma was obtained from male Sprague-Dawley rats by collecting blood in heparin tube and centrifugating at 13,000 rpm to remove blood cells. The isolated plasma was stored at −80° C. and thawed right before the test. In 96-well plate, 6 μL of peptide solution at 1 mM was incubated with 27 μL of plasma at 37° C. in an oven equipped with orbital shaker. Tightly fitted caps were used to seal the wells to avoid water evaporation during incubation. […] A 96-well UPLC plate was put at the bottom to collect the samples. Both plates were centrifuged at 500 g for 10 min at 4° C. to accelerate the filtration. […] The quantity of remaining peptide was plotted into an exponential one-phase decay curve using GraphPad Prism 8 which allowed to calculate peptide half-life. The results were presented as mean±SEM of at least 3 independent experiments, each done in simplicate.
# The percentage of remaining analogue was calculated by doing the ratio between AU of compound and AUC of internal standard. Half-lives were extrapolated from curves.
# [2] = target: T1, hAPJ receptor (Homo sapiens, UniProt P35414); assay: BRET-based β-arrestin2 recruitment assay in HEK293 cells; type: cell-based; details: for Emax: HEK293, read-out: ß-arr2 Emax
# T1 construct: expressed in transfected cells; host or cells: HEK293, transient transfection with PEI
# T1 sequence (P35414 1-380): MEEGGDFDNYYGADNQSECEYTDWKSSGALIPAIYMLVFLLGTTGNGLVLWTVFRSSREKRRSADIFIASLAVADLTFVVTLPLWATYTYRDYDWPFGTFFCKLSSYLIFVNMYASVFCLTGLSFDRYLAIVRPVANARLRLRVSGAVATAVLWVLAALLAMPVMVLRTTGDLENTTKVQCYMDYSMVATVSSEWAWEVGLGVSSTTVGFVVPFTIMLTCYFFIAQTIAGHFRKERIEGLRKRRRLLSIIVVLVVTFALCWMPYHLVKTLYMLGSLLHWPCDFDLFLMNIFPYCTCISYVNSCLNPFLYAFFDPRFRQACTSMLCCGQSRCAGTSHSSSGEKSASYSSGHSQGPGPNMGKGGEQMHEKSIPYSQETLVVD
# Protocol: (§1) HEK293 cells were cultivated in high glucose DMEM medium having 10% FBS, 100 U/mL penicillin/streptomycin, 2 mM glutamine, and 20 mM HEPES at 37° C. in T175 flasks under humidified chamber at 5% CO2. […] Cells were then washed with phosphate-buffered saline (PBS) and 90 μL Hanks' balanced salt solution was added in each well. Then, cells were stimulated with analogs at concentrations ranging from 10^−5 M to 10^−11 M for 5 min at 37° C. (Gαi1) or for 30 min at room temperature (β-arrestin2). After stimulation, 5 μM of coelanterazine 400A was added to each well and the plate was read using the BRET^2 filter set of a GeniosPro plate reader (Tecan, Austria). The BRET ratio was determined as GFP10em/RlucIIem. Data were plotted and EC50 values were determined using GraphPad Prism 8. Each data point represents the mean±SEM of at least three different experiments each done in triplicate.
# [3] = target: T1, hAPJ receptor; assay: BRET-based Gαi1 activation assay in HEK293 cells; type: cell-based; details: for Emax: HEK293, Table V, read-out: Gαi1 Emax
# Protocol: as §1
# [4] = target: T2, human APJ (hAPJ) (Homo sapiens, UniProt P35414); assay: Competitive radioligand binding ([125I][Nle75,Tyr77][Pyr1]-Ape13) on membranes of HEK293 cells stably expressing human APJ
# T2 construct: expressed in transfected cells; cell membranes
# T2 sequence (P35414 1-380): T1 sequence (P35414 1-380)
# Protocol: HEK293 cells stably expressing YFP-tagged human APJ were cultured in DMEM medium supplemented with 10% FBS, at 37° C. under a humid atmosphere maintaining 5% CO2. Antibiotic G418 (400 μg/mL) was added to maintain a selection pressure for APJ-expressing cells while penicillin/streptomycin (0.1%) were used to prevent bacterial contamination.
# Binding experiments were performed on cell membranes of HEK293 stably expressing the YFP-tagged human APJ receptor. Cells were frozen at −80° C. for storage and quickly thawed right before the experiments (1 min at 37° C.). […] The precipitate (cell membranes) was suspended in binding buffer (50 mM Tris-HCl, 0.2% BSA, pH 7.4). Binding assays were run in 96-well plates. […] (820 Ci/mmol)^3 and test ligand with a range of concentrations from 10^−1 to 10^−11 M in a total volume of 200 μL for 1 h at room temperature.
# The incubation mixtures were filtered through a glass fiber filter (Millipore, pre-absorbed of PEI 0.5% for 2 h at 4° C.) to remove unbound ligands, and the filter membranes were washed three times with 170 μL cold binding buffer (4° C.). The γ emission was measured using a 1470 Wizard γ-counter from PerkinElmer (Waltham, USA) (80% efficiency).
# [5] = Table I, rat plasma, 37° C., up to 24 h, read-out: Half-life in vitro (converted)
# [6] = Table I, rat plasma, 37° C., up to 24 h
smiles,measurement,setting,value
"CCCC[C@@H]1NC(=O)[C@@H](N)CC=CC[C@@H](C(=O)N[C@@H](CCCCN)C(=O)NCC(=O)N2CCC[C@H]2C(=O)N[C@@H](CCCC)C(=O)N2CCC[C@H]2C(=O)N[C@@H](Cc2ccccc2)C(=O)O)NC(=O)[C@H](CO)NC(=O)[C@H](CC(C)C)NC1=O [Compound 24, NH2-c[X-Nle-L-S-X]c-K-G-P-Nle-P-F]",half-life at […],[1]; [5],3.8 ± 0.5 h
"CCCC[C@H](NC(=O)[C@@H]1CCCN1C(=O)CNC(=O)[C@H](CCCCN)NC(=O)[C@@H]1CC=CC[C@H](NC(=O)[C@H](CCCNC(=N)N)NC(=O)[C@@H]2CCC(=O)N2)C(=O)N[C@@H](CCCNC(=N)N)C(=O)N[C@@H](CC(C)C)C(=O)N[C@@H](CO)C(=O)N1)C(=O)N1CCC[C@H]1C(=O)N[C@@H](Cc1ccccc1)C(=O)O [Compound 97, Pyr-R-c[X-R-L-S-X]c-K-G-P-Nle-P-F, reference compound]",Emax,[2]; Table V,98%
same,Emax,[3],101%
same,half-life at […],[1]; t1/2 in rat plasma,2 to 5 h
"CCCC[C@H](NC(=O)[C@@H]1CCCN1C(=O)CNC(=O)[C@H](CCCCN)NC(=O)[C@@H]1CCCC[C@H](NC(=O)[C@H](CCCNC(=N)N)NC(=O)[C@@H]2CCC(=O)N2)C(=O)N[C@@H](CCCNC(=N)N)C(=O)N[C@@H](CC(C)C)C(=O)N[C@@H](CO)C(=O)N1)C(=O)N1CCC[C@H]1C(=O)N[C@@H](Cc1ccccc1)C(=O)O [Compound 13, Pyr-R-c*[X-R-L-S-X]c-K-G-P-Nle-P-F]",Emax,[2]; Table V,75%
same,EC50,"[2]; Table I, read-out: EC50 β-arr2",0.199 ± 0.065 µM
same,EC50,"[2]; Table V, read-out: ß-arr2 EC50",0.199 ± 0.065 µM
same,Emax,[3],102%
same,Ki,"[4]; Table I, mean ± SEM, read-out: Ki binding",0.0043 ± 0.0003 µM
same,Ki,"[4]; Table V, read-out: Binding Ki",0.0043 ± 0.0003 µM
"CC(=O)N[C@@H](CCCCN)C(=O)N[C@@H](Cc1ccccc1)C(=O)N[C@@H](CCCNC(=N)N)C(=O)N[C@@H](CCCNC(=N)N)C(=O)N[C@@H](CCC(N)=O)C(=O)N[C@@H](CCCNC(=N)N)C(=O)N1CCC[C@H]1C(=O)N[C@@H](CCCNC(=N)N)C(=O)N[C@@H](CC(C)C)C(=O)N[C@H]1CCC(=O)NCCCC[C@@H](C(=O)N2CCC[C@H]2C(=O)N[C@@H](C)C(=O)N2CCC[C@H]2C(=O)N[C@@H](Cc2ccccc2)C(=O)O)NC(=O)[C@H](C)NC(=O)[C@H](Cc2c[nH]cn2)NC1=O [Compound 62, Ac-K-F-R-R-Q-R-P-R-L-[E-H-A-K]-P-A-P-F] (Ac-KFRRQRPRLEHAKPAPF-OH; lactam 10-13)",EC50,[2],1.26 µM
same,Ki,[4]; Ki binding,0.011 ± 0.007 µM
"CCCC[C@H](NC(=O)[C@@H]1CCCN1C(=O)CNC(=O)[C@H](CCCCN)NC(=O)[C@@H]1Cc2cncn2CC=CC[C@H](N)C(=O)N[C@@H](CCCNC(=N)N)C(=O)N[C@@H](CC(C)C)C(=O)N[C@@H](CO)C(=O)N1)C(=O)N1CCC[C@H]1C(=O)N[C@@H](Cc1ccccc1)C(=O)O [Compound 25, NH2-c[X-R-L-S-Alh]c-K-G-P-Nle-P-F]",half-life at 0.182 mM,[1]; [6],2 ± 0.3 h
"CC(C)C[C@@H]1NC(=O)[C@H](CCCNC(=N)N)NC(=O)[C@@H](N)CC=CC[C@@H](C(=O)N[C@@H](CCCCN)C(=O)NCC(=O)N2CCC[C@H]2C(=O)N[C@@H](Cc2ccc(OCc3ccccc3)c(C3CCCC3)c2)C(=O)O)NC(=O)[C@H](CO)NC1=O [Compound 38, NH2-c[X-R-L-S-X]c-K-G-P-cypTyr(OBn)]",half-life at 0.182 mM,[1]; [6],11.3 ± 1 h
"CCCC[C@H](NC(=O)[C@@H]1CCCN1C(=O)CNC(=O)[C@H](CCCCN)NC(=O)[C@@H]1CC=CCCC(=O)N[C@@H](CCCNC(=N)N)C(=O)N[C@@H](CC(C)C)C(=O)N[C@@H](CO)C(=O)N1)C(=O)N1CCC[C@H]1C(=O)N[C@@H](Cc1ccccc1)C(=O)O [Compound 22, Ø-c[X-R-L-S-X]c-K-G-P-Nle-P-F]",half-life at […],[1]; [5],2 ± 0.2 h
"CCCC[C@H](NC(=O)[C@@H]1CCCN1C(=O)CNC(=O)[C@H](CCCCN)NC(=O)[C@@H]1CC(=O)NCCCC[C@H](NC(=O)[C@H](CCCNC(=N)N)NC(=O)[C@@H]2CCC(=O)N2)C(=O)N[C@@H](CCCNC(=N)N)C(=O)N[C@@H](CC(C)C)C(=O)N[C@@H](CO)C(=O)N1)C(=O)N1CCC[C@H]1C(=O)N[C@@H](Cc1ccccc1)C(=O)O [Compound 17, Pyr-R-c[Lys-R-L-S-Asp]c-K-G-P-Nle-P-F] ([pGlu]RKRLSDKGP[Nle]PF-OH; lactam 3-7)",half-life at 0.182 mM,[1]; [6],0.1 h
"CC(C)C[C@@H]1NC(=O)[C@H](CCCNC(=N)N)NC(=O)[C@@H](N)CC=CC[C@@H](C(=O)N[C@@H](CCCCN)C(=O)NCC(=O)N2CCC[C@H]2C(=O)N[C@@H](Cc2ccc(OCc3ccccc3)cc2)C(=O)O)NC(=O)[C@H](CO)NC1=O [Compound 37, NH2-c[X-R-L-S-X]c-K-G-P-TyrOBn]",half-life at 0.182 mM,[1]; [6],0.5 ± 0.1 h
"CCCC[C@H](NC(=O)[C@@H]1CCCN1C(=O)CNC(=O)[C@H](CCCCN)NC(=O)[C@@H]1CC(=O)NC[C@H](NC(=O)[C@H](CCCNC(=N)N)NC(=O)[C@@H]2CCC(=O)N2)C(=O)N[C@@H](CCCNC(=N)N)C(=O)N[C@@H](CC(C)C)C(=O)N[C@@H](CO)C(=O)N1)C(=O)N1CCC[C@H]1C(=O)N[C@@H](Cc1ccccc1)C(=O)O [Compound 14, Pyr-R-c[Dap-R-L-S-Asp]c-K-G-P-Nle-P-F]",half-life at 0.182 mM,[1]; [6],0.2 ± 0.1 h
"CCCC[C@H](NC(=O)[C@@H]1CCC(=O)NCCCC[C@H](N)C(=O)N[C@@H](CCCNC(=N)N)C(=O)N[C@@H](CCCNC(=N)N)C(=O)N1)C(=O)N[C@H]1CSSC[C@@H](C(=O)N[C@@H](CCCNC(=N)N)C(=O)N[C@H](C(=O)N2CCC[C@H]2C(=O)N[C@@H](Cc2ccccc2)C(=O)N2CCC[C@H]2C(=O)O)C(C)C)NC(=O)[C@H](Cc2c[nH]cn2)NC(=O)[C@H](CC(C)C)NC1=O [Compound 79, c[K-R-R-E]-Nle-c[C-L-H-C]-R-V-P-F-P] (H-KRRE[Nle]CLHCRVPFP-OH; lactam 1-4; disulfide 6-9)",EC50,[2],0.051 ± 0.003 µM
same,EC50,[3],0.004 ± 0.0008 µM
same,half-life at […],"[1]; Table III, rat plasma, read-out: Half-life in vitro (converted)",> 17 h
"CC(C)C[C@@H]1NC(=O)[C@H](CCCNC(=N)N)NC(=O)[C@@H](N)CC=CC[C@@H](C(=O)N[C@@H](CCCCN)C(=O)NCC(=O)N2CCC[C@H]2C(=O)N[C@@H](Cc2ccc3ccccc3c2)C(=O)O)NC(=O)[C@H](CO)NC1=O [Compound 36, NH2-c[X-R-L-S-X]c-K-G-P-2Nal]",half-life at 0.182 mM,[1]; [6],0.4 ± 0.1 h
"CC(C)C[C@@H]1NC(=O)[C@@H]2CCCN2C(=O)[C@@H](NC(=O)[C@H](CO)NC(=O)[C@H](CCCNC(=N)N)NC(=O)[C@H](CCCNC(=N)N)NC(=O)[C@@H]2CCC(=O)N2)CCC(=O)NCCCC[C@@H](C(=O)N[C@@H](CCCNC(=N)N)C(=O)N[C@H](C(=O)N2CCC[C@H]2C(=O)N[C@@H](Cc2ccc(Br)cc2)C(=O)N2CCC[C@H]2C(=O)O)C(C)C)NC(=O)[C@H](Cc2c[nH]cn2)NC1=O [Compound 92, Pyr-R-R-S-[E-P-L-H-K]-R-V-P-4BrF-P] ([pGlu]RRSEPLHKRVP[Phe(4-Br)]P-OH; lactam 5-9)",EC50,[2],0.439 ± 0.091 µM
same,EC50,[3],0.016 ± 0.003 µM
same,Ki,[4]; Binding Ki,0.015 ± 0.002 µM
"CC(C)C[C@@H]1NC(=O)[C@H](CCCNC(=N)N)NC(=O)[C@@H](N)CC=CC[C@@H](C(=O)N[C@@H](CCCCN)C(=O)NCC(=O)N2CCC[C@H]2C(=O)N[C@@H](Cc2cccc3ccccc23)C(=O)O)NC(=O)[C@H](CO)NC1=O [Compound 35, NH2-c[X-R-L-S-X]c-K-G-P-1Nal]",half-life at 0.182 mM,[1]; [6],0.3 ± 0.1 h
